Patent publication US3983230A, “Antibiotic siomycin A derivatives and production thereof” (priority 1973, dated 1976)
Values after ≈ are worked out from the molar mass of the structure shown. Like-named read-outs stand apart in the source and are kept apart here.

Legend:
[1] = tested on: Diplococcus pneumoniae type I; test: Therapeutic effect in mice infected with Diplococcus pneumoniae type I; format: in vivo; conditions: i.p. infection with Diplococcus pneumoniae type I, subcutaneous at 0, 4 and 8 hours, survival 7 days
Protocol: (§1) The therapeutic effect of sodium salts of the half ester of siomycin A with dicarboxylic acid in mice against experimental infections are shown in Table 3.
(§2) A group of 10 mice weighing 19-21 g were infected with a standardized inoculum of Diplococcus pneumoniae type or Streptococcus pyogenes C-203 by intraperitoneal injection.
(§3) The sodium salts of half esters of siomycin A with the dicarboxylic acid were administered subcutaneously to the mice at 0, 4 and 8 hours after infection and survival of infected mice was examined for 7 days after infection.

[2] = background, cited from earlier work
[3] = tested on: Staphylococcus aureus 80257; test: Minimum inhibitory concentration, Staphylococcus aureus 80257; format: cell-based
[4] = tested on: Staphylococcus aureus FDA 219PJC-1; test: Minimum inhibitory concentration, Staphylococcus aureus FDA 219PJC-1; format: cell-based
[5] = tested on: Streptococcus pyogenes C-203; test: Minimum inhibitory concentration, Streptococcus pyogenes C-203; format: cell-based
[6] = tested on: Bacillus subtilis PCI 219; test: Minimum inhibitory concentration, Bacillus subtilis PCI 219; format: cell-based
[7] = tested on: gram-positive bacteria; test: Antibacterial activity against gram-positive bacteria; format: cell-based
Excerpt: The half esters of siomycin A and salts thereof show activities against a variety of microorganisms.

[8] = tested on: Streptococcus pyogenes C-203; test: Therapeutic effect in mice infected with Streptococcus pyogenes C-203; format: in vivo; conditions: i.p. infection with Streptococcus pyogenes C-203, subcutaneous at 0, 4 and 8 hours, survival 7 days
Protocol: as §1, §2, §3

[9] = Solubility in 0.1% aqueous sodium hydrogencarbonate (distilled water for sodium salts), Table 1; format: physicochemical; conditions: 0.1% aqueous solution of sodium hydrogencarbonate
Excerpt: The solubility in various solvents of several specific products obtained by the process of the present invention are shown in Table 1 in comparison with the solubility of siomycin A.

[10] = tested on: Bacillus anthracis; format: cell-based
[11] = Qualitative solubility in various solvents (text, Examples)
[12] = tested on: Diplococcus pneumoniae type I; test: Minimum inhibitory concentration, Diplococcus pneumoniae type I; format: cell-based

In the case of `C=C(NC(=O)C(=C)NC(=O)c1csc(C2=N[C@@H]3c4csc(n4)[C@H]4NC(=O)c5csc(n5)[C@H]([C@](C)(O)[C@@H](C)O)NC(=O)[C@H]5CSC(=N5)/C(=C/C)NC(=O)[C@H]([C@@H](C)O)NC(=O)c5csc(n5)[C@]3(CC2)NC(=O)[C@H](C)NC(=O)C(=C)NC(=O)C(=C)NC(=O)[C@H](C(C)C)N[C@@H]2C=Cc3c([C@H](C)O)cc(nc3[C@H]2O)C(=O)O[C@@H]4C)n1)C(N)=O` [Siomycin A, siomycin A], the ED50 [1] is given as 23.2 mg/kg, the Solubility ([2]; butanol) is given as “slightly soluble” and the Solubility ([2]; chloroform) is given as “slightly soluble”. For the same molecule, the Solubility ([2]; dioxane) was “soluble”, the Solubility ([2]; ethanol) was “slightly soluble” and the Solubility ([2]; methanol) was “slightly soluble”. The Solubility ([2]; water) was “almost insoluble”, the Minimum inhibitory concentration [3] was 0.39 µg/mL (≈ 0.237 µM) and the Minimum inhibitory concentration [4] was 0.39 µg/mL (≈ 0.237 µM). For the same molecule, the Minimum inhibitory concentration [5] was 0.1 µg/mL (≈ 0.0606 µM), the Minimum inhibitory concentration [6] was 0.39 µg/mL (≈ 0.237 µM) and the “minimum inhibitory concentration against gram-positive bacteria” value [7] was 0.1 to 0.78 µg/mL. It also gave an ED50 [8] of 75.2 mg/kg, a Solubility [9] of 0.00015% and a Minimum inhibitory concentration [10] of 0.78 µg/mL (≈ 0.473 µM). The Solubility ([11]; dilute alkaline solution) was “almost insoluble”, the Solubility ([11]; water) was “almost insoluble” and the Minimum inhibitory concentration [12] was 0.1 µg/mL (≈ 0.0606 µM).
